Assay results taken from patent US20220380341A1, “INHIBITORS OF HIV-1 NEF FOR THE TREATMENT OF HIV DISEASE” (priority 2018, published 2022).
Like-named read-outs stand apart in the source and are kept apart here.

Legend:
[1] = biological target: HIV-1 NefNL4-3 (Human immunodeficiency virus type 1 group M subtype B, UniProt P03406, A33V/T15A/T51N/V11I); experiment: Surface plasmon resonance binding to recombinant full-length Nef (NL4-3); conditions: for RU30/RUNef (extent of binding): response units at 30 μM relative to Nef immobilized on the SPR chip
[2] = tested on: TZM-bl cell line; assay type: cell-based; conditions: human, 1 μM
How it was run: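 Nef-dependent infectivity in TZM-bl cells: HIV-1NL4-3 infection with 1 μM compound, luciferase read at 48 h, normalized against DMSO wild-type and Nef-defective controls. Compound cytotoxicity in uninfected cells measured by Cell Titer Blue.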

[3] = tested on: HIV-1NL4-3; experiment: HIV-1 infectivity assay in TZM-bl reporter cell line (LTR-luciferase, 48 h); assay type: cell-based; conditions: Human immunodeficiency virus 1, TZM-bl
How it was run: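 Percent inhibition of HIV-1NL4-3 infectivity at 1 μM compound, from luciferase output of TZM-bl cells 48 h after infection. Scale anchors are DMSO-treated wild-type infection as zero and DMSO-treated Nef-defective infection as full Nef-dependent effect.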

[4] = KD, M, Table 4, SPR fit 1:1 Langmuir, KD = koff/kon
[5] = Table 4, 1:1 Langmuir fit, T = 1/koff
[6] = 1.0 μM, TZM-bl reporter cell line, Table 4, read-out: % Infectivity Inhibition
[7] = 48 h, Table 1, TZM-bl cells, 1 μM, 48 h, 100% = Nef-defective HIV-1, read-out: HIV-1 Infectivity % Inhibition Norm. to Δ-Nef @ 1 μM
[8] = KD, M, Table 4, SPR fit 2-step induced fit, KD = koff/kon × koff2/(koff2 + kon2)
[9] = Nef NL4-3 Binding, SPR 2-state fitting KD, Table 1, 2-step induced-fit model
[10] = Table 4, 2-step induced fit, T = 1/koff2
[11] = read-out: Nef NL4-3 Binding, SPR 1:1 or 2-site fitting KD2, Table 1, 2-site fit, second component

CS(=O)(=O)N1CCC(c2nn(-c3nc4cc(Cl)ccc4[nH]3)c(O)c2CCn2nccn2)CC1 [Compound I-707, 1-(5-chloro-1H-1,3-benzodiazol-2-yl)-3-(1-methanesulfonylpiperidin-4-yl)-4-[2-(2H-1,2,3-triazol-2-yl)ethyl]-1H-pyrazol-5-ol]
Kd [1]: 1980 nM | Kd [1, 4]: 1980 nM | T, minutes (residence time) [1, 5]: 4.33E + 00 minutes | RU30/RUNef (extent of binding) [1]: 1.81E- 03 | % Cell Viability [2]: 100% | Percent Viability @ 1 μM (TZM-bl cells) [2]: 109.3% | inhibition at 1 µM [3, 6]: 0% | inhibition at 1 µM [3, 7]: -10.6%

COC(=O)N1CCC(CCc2c(-c3ccc(C(F)(F)F)cn3)nn(-c3nc4cc(Br)ccc4[nH]3)c2O)CC1 [Compound I-708, methyl 4-{2-[1-(5-bromo-1H-1,3-benzodiazol-2-yl)-5-hydroxy-3-[5-(trifluoromethyl)pyridin-2-yl]-1H-pyrazol-4-yl]ethyl}piperidine-1-carboxylate]
Kd [1]: 1.4 nM | Kd [1, 4]: 1.4 nM | T, minutes (residence time) [1, 5]: 1.00E + 04 minutes | RU30/RUNef (extent of binding) [1]: 2.04E- 03 | % Cell Viability [2]: 77.8% | Percent Viability @ 1 μM (TZM-bl cells) [2]: 77.8% | inhibition at 1 µM [3, 6]: 100% | inhibition at 1 µM [3, 7]: 117%

CC(=O)N1CCC(CCc2c(-c3ccc(C(F)(F)F)cn3)nn(-c3nc4cc(Br)ccc4[nH]3)c2O)CC1 [Compound I-709, 1-(4-{2-[1-(5-bromo-1H-1,3-benzodiazol-2-yl)-5-hydroxy-3-[5-(trifluoromethyl)pyridin-2-yl]-1H-pyrazol-4-yl]ethyl}piperidin-1-yl)ethan-1-one]
Kd [1]: 26.3 nM | Kd [1, 4]: 26.3 nM | T, minutes (residence time) [1, 5]: 5.18E + 02 minutes | RU30/RUNef (extent of binding) [1]: 8.85E- 04 | % Cell Viability [2]: 74.0% | Percent Viability @ 1 μM (TZM-bl cells) [2]: 74.0% | inhibition at 1 µM [3, 6]: 66.7% | inhibition at 1 µM [3, 7]: 66.7%

O=C(c1ccc(F)cc1)N1CCC(CCc2c(C3CC3)nn(-c3nc4cc(Cl)ccc4[nH]3)c2O)CC1 [Compound I-710, 1-(5-chloro-1H-1,3-benzodiazol-2-yl)-3-cyclopropyl-4-{2-[1-(4-fluorobenzoyl)piperidin-4-yl]ethyl}-1H-pyrazol-5-ol]
Kd [1, 8]: 2460 nM | Kd [1, 9]: 2460 nM | T, minutes (residence time) [1, 10]: 4.16E + 00 minutes | Kd [1, 11]: 9780 nM | RU30/RUNef (extent of binding) [1]: 2.12E- 02 | % Cell Viability [2]: 100% | Percent Viability @ 1 μM (TZM-bl cells) [2]: 106.9% | inhibition at 1 µM [3, 6]: 2.5% | inhibition at 1 µM [3, 7]: 2.5%

O=C(C1CC1)N1CCC(CCc2c(C3CC3)nn(-c3nc4cc(Cl)ccc4[nH]3)c2O)CC1 [Compound I-711, 1-(5-chloro-1H-1,3-benzodiazol-2-yl)-4-[2-(1-cyclopropanecarbonylpiperidin-4-yl)ethyl]-3-cyclopropyl-1H-pyrazol-5-ol]
Kd [1, 8]: 3290 nM | Kd [1, 9]: 3290 nM | T, minutes (residence time) [1, 10]: 5.97E + 00 minutes | Kd [1, 11]: 8640 nM | RU30/RUNef (extent of binding) [1]: 1.96E- 02 | % Cell Viability [2]: 97.2% | Percent Viability @ 1 μM (TZM-bl cells) [2]: 97.2% | inhibition at 1 µM [3, 6]: 0% | inhibition at 1 µM [3, 7]: -0.4%

CC(=O)N1CCC(c2c(-c3ccc(C(F)(F)F)cc3)nn(-c3nc4ccccc4[nH]3)c2O)CC1 [Compound I-713, 1-{4-[1-(1H-1,3-benzodiazol-2-yl)-5-hydroxy-3-[4-(trifluoromethyl)phenyl]-1H-pyrazol-4-yl]piperidin-1-yl}ethan-1-one]
Kd [1]: 378000 nM | Percent Viability @ 1 μM (TZM-bl cells) [2]: 76.8% | inhibition at 1 µM [3, 7]: 27.8%

CC(=O)N1CCC(CCc2c(-c3ccc(C(F)(F)F)cn3)nn(-c3nc4ccccc4[nH]3)c2O)CC1 [Compound I-714, 1-(4-{2-[1-(1H-1,3-benzodiazol-2-yl)-5-hydroxy-3-[5-(trifluoromethyl)pyridin-2-yl]-1H-pyrazol-4-yl]ethyl}piperidin-1-yl)ethan-1-one]
Kd [1]: 1110 nM | Kd [1, 4]: 1110 nM | T, minutes (residence time) [1, 5]: 3.64E + 00 minutes | RU30/RUNef (extent of binding) [1]: 1.32E- 03 | % Cell Viability [2]: 98.3% | Percent Viability @ 1 μM (TZM-bl cells) [2]: 98.3% | inhibition at 1 µM [3, 6]: 63.6% | inhibition at 1 µM [3, 7]: 63.6%
